SMILES strings stand for the structures. Converted amounts (≈) assume the structure as drawn. Some results are limits rather than exact numbers.

Data on four compounds can be found in ChEMBL document CHEMBL2375250, “Efficient synthesis of new (R)-2-amino-1-butanol derived ureas, thioureas and acylthioureas and in vitro evaluation of their antimycobacterial activity” (Eur J Med Chem, 2013).

In assay [1] the test system is Mycobacterium tuberculosis. Briefly: Antimycobacterial activity against multidrug-resistant Mycobacterium tuberculosis 43 assessed as bacterial growth at 5 uM after 45 days by Lowenstein-Jensen method. The format is functional.
Assay [2] has as its system Mycobacterium tuberculosis. The assay can be described thus: Antimycobacterial activity against multidrug-resistant Mycobacterium tuberculosis 43 assessed as growth inhibition after 45 days by Lowenstein-Jensen method. Type of assay: functional.

Regarding `CC[C@H](CO)NC(=S)NC(=O)CCc1ccccc1`, the Activity in assay [1] is given as 100%. For the same compound, in assay [2], the minimal inhibitory concentration (MIC) is over 17.8 µM.
The like results for `CC[C@H](CO)NC(=S)NC(=O)/C=C/c1ccccc1` were, in that order, 100% and over 18 µM.
On the same counts, the results for `CC[C@H](CO)NC(=S)NC(=O)c1ccc(N(C)C)cc1` are 100% and over 16.9 µM.
Regarding `CC[C@H](CO)NC(=S)NC(=O)c1ccccc1O`, the minimal inhibitory concentration (MIC) in assay [2] was 7.46 µM (≈ 2 µg/mL).

The term MIC denotes the lowest concentration found to suppress growth.
